Laboratory results as given in ChEMBL document CHEMBL1141584, “Synthesis, biological evaluation and molecular modelling studies of methyleneimidazole substituted biaryls as inhibitors of human 17alpha-hydroxylase-17,20-lyase (CYP17). Part I: Heterocyclic modifications of the core structure” (Bioorg Med Chem, 2008).
Values belong to the molecule of their own block, whether it stands above or below them.

Experiments:
[1] = tested on: Rattus norvegicus; assay: Reduction of testosterone level in Wistar rat plasma at 56.02 mg/kg, po after 6 hrs by ELISA relative to pretreatment value; assay type: functional; set-up: scale not given: the % may be the effect or the level left
[2] = tested on: Rattus norvegicus; assay: Reduction of testosterone level in Wistar rat plasma at 56.02 mg/kg, po after 2 hrs by ELISA relative to pretreatment value; assay type: functional; set-up: scale not given: the % may be the effect or the level left
[3] = tested on: Rattus norvegicus; assay: Reduction of testosterone level in Wistar rat plasma at 56.02 mg/kg, po after 1 hr by ELISA relative to pretreatment value; assay type: functional; set-up: scale not given: the % may be the effect or the level left
[4] = tested on: Rattus norvegicus; assay: Reduction of testosterone level in Wistar rat plasma at 56.02 mg/kg, po after 4 hrs by ELISA relative to pretreatment value; assay type: functional; set-up: scale not given: the % may be the effect or the level left
[5] = tested on: Rattus norvegicus; assay: Reduction of testosterone level in Wistar rat plasma at 56.02 mg/kg, po after 8 hrs by ELISA relative to pretreatment value; assay type: functional; set-up: scale not given: the % may be the effect or the level left
[6] = molecular target: T1, CYP1A2 (Homo sapiens, UniProt P05177); assay: Inhibition of recombinant CYP1A2 at 10 uM; assay type: ADME
T1 sequence (P05177 whole entry): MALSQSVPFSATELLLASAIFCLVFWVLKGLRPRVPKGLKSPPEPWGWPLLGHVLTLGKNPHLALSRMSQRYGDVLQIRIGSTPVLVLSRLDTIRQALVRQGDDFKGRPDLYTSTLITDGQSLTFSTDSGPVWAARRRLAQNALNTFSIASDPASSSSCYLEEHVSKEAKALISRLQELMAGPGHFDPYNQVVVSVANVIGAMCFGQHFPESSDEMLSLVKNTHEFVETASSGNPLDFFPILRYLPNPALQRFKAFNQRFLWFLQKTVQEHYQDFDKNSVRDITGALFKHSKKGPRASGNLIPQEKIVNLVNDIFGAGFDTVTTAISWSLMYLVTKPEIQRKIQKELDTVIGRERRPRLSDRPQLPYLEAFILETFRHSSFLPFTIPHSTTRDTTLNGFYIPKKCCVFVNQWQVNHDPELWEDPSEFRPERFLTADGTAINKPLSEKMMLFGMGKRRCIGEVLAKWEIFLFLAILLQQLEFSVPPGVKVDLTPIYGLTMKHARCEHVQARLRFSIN

[7] = molecular target: T2, CYP2D6 (Homo sapiens, UniProt P10635); assay: Inhibition of recombinant CYP2D6 at 1 uM; assay type: ADME
T2 sequence (P10635 whole entry): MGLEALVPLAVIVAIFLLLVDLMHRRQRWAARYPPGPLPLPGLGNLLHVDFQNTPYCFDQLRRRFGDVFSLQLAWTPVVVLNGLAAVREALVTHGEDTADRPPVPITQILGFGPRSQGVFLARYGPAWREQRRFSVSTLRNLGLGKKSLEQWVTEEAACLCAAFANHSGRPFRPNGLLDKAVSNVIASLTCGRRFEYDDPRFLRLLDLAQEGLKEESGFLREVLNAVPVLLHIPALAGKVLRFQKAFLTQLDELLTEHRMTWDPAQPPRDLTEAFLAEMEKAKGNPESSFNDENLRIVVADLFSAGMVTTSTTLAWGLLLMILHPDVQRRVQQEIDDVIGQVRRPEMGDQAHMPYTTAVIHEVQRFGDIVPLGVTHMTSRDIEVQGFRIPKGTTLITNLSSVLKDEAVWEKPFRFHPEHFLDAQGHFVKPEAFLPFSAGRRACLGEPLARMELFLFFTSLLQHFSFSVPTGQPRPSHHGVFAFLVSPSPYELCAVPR

[8] = molecular target: T3, CYP2C19 (Homo sapiens, UniProt P33261); assay: Inhibition of recombinant CYP2C19 at 1 uM; assay type: ADME
T3 sequence (P33261 whole entry): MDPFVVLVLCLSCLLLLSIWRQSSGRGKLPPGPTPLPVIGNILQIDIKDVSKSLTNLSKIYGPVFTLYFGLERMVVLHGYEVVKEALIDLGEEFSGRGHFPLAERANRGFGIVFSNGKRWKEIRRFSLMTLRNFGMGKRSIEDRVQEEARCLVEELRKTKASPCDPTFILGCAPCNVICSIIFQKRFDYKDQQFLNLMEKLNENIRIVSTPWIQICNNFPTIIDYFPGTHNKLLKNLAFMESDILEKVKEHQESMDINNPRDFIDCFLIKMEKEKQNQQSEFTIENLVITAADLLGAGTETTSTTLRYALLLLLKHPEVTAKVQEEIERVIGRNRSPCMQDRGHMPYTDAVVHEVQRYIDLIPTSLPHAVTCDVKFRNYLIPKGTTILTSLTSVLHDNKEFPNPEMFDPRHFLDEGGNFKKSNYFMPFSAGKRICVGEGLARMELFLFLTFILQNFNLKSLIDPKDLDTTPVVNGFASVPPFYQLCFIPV

[9] = molecular target: T4, CYP2B6 (Homo sapiens, UniProt P20813); assay: Inhibition of recombinant CYP2B6 at 1 uM; assay type: ADME
T4 sequence (P20813 whole entry): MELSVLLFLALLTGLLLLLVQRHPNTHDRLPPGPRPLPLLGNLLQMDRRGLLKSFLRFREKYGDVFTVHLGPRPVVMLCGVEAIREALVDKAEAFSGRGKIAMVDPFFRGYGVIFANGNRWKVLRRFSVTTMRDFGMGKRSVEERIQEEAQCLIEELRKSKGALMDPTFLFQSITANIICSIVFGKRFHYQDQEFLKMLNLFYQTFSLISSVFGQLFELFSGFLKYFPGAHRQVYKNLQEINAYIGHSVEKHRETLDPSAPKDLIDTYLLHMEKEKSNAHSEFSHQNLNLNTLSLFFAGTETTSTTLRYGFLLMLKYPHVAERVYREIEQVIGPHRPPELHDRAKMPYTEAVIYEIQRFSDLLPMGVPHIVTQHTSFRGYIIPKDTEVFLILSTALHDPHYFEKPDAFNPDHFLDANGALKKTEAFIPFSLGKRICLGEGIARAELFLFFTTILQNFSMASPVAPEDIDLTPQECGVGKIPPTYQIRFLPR

[10] = molecular target: T3, CYP2C19; assay: Inhibition of recombinant CYP2C19 at 10 uM; assay type: ADME
[11] = molecular target: T5, Steroid 17-alpha-hydroxylase/17,20 lyase (Rattus norvegicus, UniProt P11715); assay: Inhibition of Sprague-Dawley rat testicular CYP17
T5 sequence (P11715 whole entry): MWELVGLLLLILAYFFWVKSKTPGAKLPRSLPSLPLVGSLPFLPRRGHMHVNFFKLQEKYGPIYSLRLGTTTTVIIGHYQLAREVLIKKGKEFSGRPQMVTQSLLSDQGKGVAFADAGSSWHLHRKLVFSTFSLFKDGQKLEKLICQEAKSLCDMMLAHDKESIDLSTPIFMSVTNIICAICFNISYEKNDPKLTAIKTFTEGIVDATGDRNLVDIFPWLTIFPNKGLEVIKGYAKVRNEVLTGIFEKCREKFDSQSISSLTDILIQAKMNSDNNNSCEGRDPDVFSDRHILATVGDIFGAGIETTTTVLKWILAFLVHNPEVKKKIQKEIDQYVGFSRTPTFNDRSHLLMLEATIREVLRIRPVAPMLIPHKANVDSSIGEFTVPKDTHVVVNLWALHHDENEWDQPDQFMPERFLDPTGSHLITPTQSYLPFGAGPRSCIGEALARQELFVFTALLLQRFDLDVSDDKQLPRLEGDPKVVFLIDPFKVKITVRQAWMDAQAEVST

[12] = tested on: Rattus norvegicus; assay: Reduction of testosterone level in Wistar rat at 50 mg/kg, po after 4 hrs by ELISA relative to pretreatment value; assay type: functional; set-up: scale not given: the % may be the effect or the level left
[13] = molecular target: T1, CYP1A2; assay: Inhibition of recombinant CYP1A2 at 1 uM; assay type: ADME
[14] = molecular target: T6, Steroid 17-alpha-hydroxylase/17,20 lyase (Homo sapiens, UniProt P05093); assay: Inhibition of human CYP17 expressed in Escherichia coli co-expressed with NADPH-P450 reductase at 2 uM
T6 sequence (P05093 whole entry): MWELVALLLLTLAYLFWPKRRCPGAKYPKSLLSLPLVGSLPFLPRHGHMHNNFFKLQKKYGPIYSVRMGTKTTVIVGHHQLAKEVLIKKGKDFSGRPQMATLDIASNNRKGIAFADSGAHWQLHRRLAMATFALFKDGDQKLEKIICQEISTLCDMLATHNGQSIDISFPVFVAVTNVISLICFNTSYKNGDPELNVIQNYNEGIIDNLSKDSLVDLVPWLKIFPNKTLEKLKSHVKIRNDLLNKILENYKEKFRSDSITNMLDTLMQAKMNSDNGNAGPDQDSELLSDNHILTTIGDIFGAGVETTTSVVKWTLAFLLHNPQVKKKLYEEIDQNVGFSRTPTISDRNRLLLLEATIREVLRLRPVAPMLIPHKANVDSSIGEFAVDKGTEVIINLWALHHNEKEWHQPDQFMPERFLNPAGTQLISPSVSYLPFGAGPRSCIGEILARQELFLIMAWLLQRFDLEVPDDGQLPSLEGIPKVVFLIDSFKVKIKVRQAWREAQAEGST

[15] = molecular target: T6, Steroid 17-alpha-hydroxylase/17,20 lyase; assay: Inhibition of human CYP17 expressed in Escherichia coli co-expressed with NADPH-P450 reductase at 0.2 uM
[16] = molecular target: T7, CYP3A4 (Homo sapiens, UniProt P08684); assay: Inhibition of recombinant CYP3A4 at 1 uM; assay type: ADME
T7 sequence (P08684 whole entry): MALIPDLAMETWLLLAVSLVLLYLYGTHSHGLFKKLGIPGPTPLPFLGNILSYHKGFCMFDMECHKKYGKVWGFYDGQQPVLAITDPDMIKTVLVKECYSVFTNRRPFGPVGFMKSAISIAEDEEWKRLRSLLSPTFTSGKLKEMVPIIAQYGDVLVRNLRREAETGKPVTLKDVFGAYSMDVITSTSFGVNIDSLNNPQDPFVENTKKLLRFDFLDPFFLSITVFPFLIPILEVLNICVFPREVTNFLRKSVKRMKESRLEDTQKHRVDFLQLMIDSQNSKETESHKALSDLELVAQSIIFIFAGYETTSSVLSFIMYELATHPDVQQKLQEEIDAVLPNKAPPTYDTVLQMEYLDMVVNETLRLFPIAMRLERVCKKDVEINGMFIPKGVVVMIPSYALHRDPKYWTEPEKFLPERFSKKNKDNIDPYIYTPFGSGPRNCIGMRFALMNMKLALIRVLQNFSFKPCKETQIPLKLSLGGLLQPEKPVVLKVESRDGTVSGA

[17] = molecular target: T2, CYP2D6; assay: Inhibition of recombinant CYP2D6 at 10 uM; assay type: ADME
[18] = Cmax in Wistar rat at 50 mg/kg, po; assay type: ADME, organism-based; set-up: dose 50 mg/kg, route oral; conditions: in vivo
[19] = AUC (0 to infinity) in Wistar rat at 50 mg/kg, po; assay type: ADME, organism-based; set-up: time infinity, dose 50 mg/kg, route oral; conditions: plasma
[20] = tested on: Rattus norvegicus; assay: Reduction of testosterone level in Wistar rat plasma at 50 mg/kg, po after 8 hrs by ELISA relative to pretreatment value; assay type: functional; set-up: scale not given: the % may be the effect or the level left
[21] = Terminal half life in Wistar rat plasma at 50 mg/kg, po; assay type: ADME, organism-based; set-up: dose 50 mg/kg, route oral
[22] = molecular target: T7, CYP3A4; assay: Inhibition of recombinant CYP3A4 at 10 uM; assay type: ADME
[23] = tested on: Rattus norvegicus; assay: Reduction of testosterone level in Wistar rat plasma at 50 mg/kg, po after 1 hr by ELISA relative to pretreatment value; assay type: functional; set-up: scale not given: the % may be the effect or the level left
[24] = tested on: Rattus norvegicus; assay: Reduction of testosterone level in Wistar rat plasma at 50 mg/kg, po after 6 hrs by ELISA relative to pretreatment value; assay type: functional; set-up: scale not given: the % may be the effect or the level left
[25] = tested on: Rattus norvegicus; assay: Reduction of testosterone level in Wistar rat plasma at 50 mg/kg, po after 2 hrs by ELISA relative to pretreatment value; assay type: functional; set-up: scale not given: the % may be the effect or the level left
[26] = Tmax in Wistar rat at 50 mg/kg, po; assay type: ADME, organism-based; set-up: dose 50 mg/kg, route oral; conditions: in vivo
[27] = molecular target: T4, CYP2B6; assay: Inhibition of recombinant CYP2B6 at 10 uM; assay type: ADME
[28] = Total body clearance in Wistar rat at 50 mg/kg, po; assay type: ADME, organism-based; set-up: dose 50 mg/kg, route oral; conditions: in vivo
[29] = molecular target: T6, Steroid 17-alpha-hydroxylase/17,20 lyase; assay: Inhibition of human CYP17 expressed in Escherichia coli co-expressed with NADPH-P450 reductase
[30] = molecular target: T8, CYP2C9 (Homo sapiens, UniProt P11712); assay: Inhibition of recombinant CYP2C9 at 1 uM; assay type: ADME
T8 sequence (P11712 whole entry): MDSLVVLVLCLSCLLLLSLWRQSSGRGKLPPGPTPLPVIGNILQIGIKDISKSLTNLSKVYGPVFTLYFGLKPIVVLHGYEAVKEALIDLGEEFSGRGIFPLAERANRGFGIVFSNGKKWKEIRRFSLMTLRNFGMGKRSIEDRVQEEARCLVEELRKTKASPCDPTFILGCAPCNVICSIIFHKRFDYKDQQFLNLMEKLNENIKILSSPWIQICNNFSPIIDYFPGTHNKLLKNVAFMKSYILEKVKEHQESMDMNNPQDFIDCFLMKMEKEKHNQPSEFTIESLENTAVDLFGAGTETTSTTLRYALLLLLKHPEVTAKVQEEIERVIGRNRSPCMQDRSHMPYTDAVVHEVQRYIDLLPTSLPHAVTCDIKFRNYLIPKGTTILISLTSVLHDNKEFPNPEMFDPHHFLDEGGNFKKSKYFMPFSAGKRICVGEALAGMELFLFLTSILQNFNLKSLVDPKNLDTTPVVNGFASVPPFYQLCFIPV

[31] = molecular target: T8, CYP2C9; assay: Inhibition of recombinant CYP2C9 at 10 uM; assay type: ADME

Compound: CC(=O)O[C@H]1CC[C@@]2(C)C(=CC[C@@H]3[C@@H]2CC[C@]2(C)C(c4cccnc4)=CC[C@@H]32)C1 [ABIRATERONE ACETATE]
Activity [1]: 43.3%
Activity [2]: 44%
Activity [3]: 92.5%
Activity [4]: 43.5%
Activity [5]: 35.6%

inhibition at 10 µM [6]: 100%
inhibition at 1 µM [7]: 24%
inhibition at 1 µM [8]: 95%
inhibition at 1 µM [9]: 60%
inhibition at 10 µM [10]: 100%
IC50 [11]: 562 nM
inhibition at 1 µM [13]: 98%
inhibition at 2 µM [14]: 83%
inhibition at 0.2 µM [15]: 28%
inhibition at 1 µM [16]: 88%
inhibition at 10 µM [17]: 77%
Cmax [18]: 1740 ng/mL
AUC(0-inf) [19]: 6700 ng·h/mL
half-life [21]: 3.8 h
inhibition at 10 µM [22]: 92%
Tmax [26]: 1 h
inhibition at 10 µM [27]: 87%
CL/F [28]: 125 mL/min/kg
IC50 [29]: 373 nM
inhibition at 1 µM [30]: 81%
inhibition at 10 µM [31]: 74%
Compound: CCC(c1ccc(-c2ccsc2)cc1)n1ccnc1 (stereo unspecified)
Activity [12]: 26.9%
Activity [20]: 63%
Activity [23]: 37.6%
Activity [24]: 62.6%
Activity [25]: 30.5%
